Legend:
rgRSV224 virus = assay: Antiviral activity: rgRSV224 (GFP) replication in HeLa cells; assay type: cell-based, respiratory syncytial virus (RSV); settings: human respiratory syncytial virus, HeLa, 72 h, read-out: RSV HELA EC50 (μM), rgRSV224 virus (MOI=1), HeLa cells, GFP expression three days post-virus exposure
in vitro = settings: human, TOX HELA CC50 (μM)
Protocol: Black 384-well clear-bottom microtiter plates (Corning, Amsterdam, The Netherlands) were filled via acoustic drop ejection using the echo liquid handler (Labcyte, Sunnyvale, Calif.). 200 nL of compound stock solutions (100% DMSO) were transferred to the assay plates. 9 serial 4-fold dilutions of compound were made, creating per quadrant the same compound concentration. The assay was initiated by adding 10 μL of culture medium to each well (RPMI medium without phenol red, 10% FBS-heat inactivated, 0.04% gentamycin (50 mg/mL). All addition steps are done by using a multidrop dispenser (Thermo Scientific, Erembodegem, Belgium). Next, rgRSV224 virus (MOI=1) diluted in culture medium was added to the plates. rgRSV224 virus is an engineered virus that includes an additional GFP gene (Hallak L K, Spillmann D, Collins P L, Peeples M E. Glycosaminoglycan sulfation requirements for respiratory syncytial virus infection; Journal of virology (2000), 74(22), 10508-13) and was in-licensed from the NIH (Bethesda, Md., USA). Finally, 20 μL of a HeLa cell suspension (3,000 cells/well) were plated. Medium, virus- and mock-infected controls were included in each test. The wells contain 0.05% DMSO per volume. Cells were incubated at 37° C. in a 5% CO2 atmosphere. Three days post-virus exposure, viral replication was quantified by measuring GFP expression in the cells by an in house developed MSM laser microscope (Tibotec, Beerse, Belgium). The EC50 was defined as the 50% inhibitory concentration for GFP expression. In parallel, compounds were incubated for three days in a set of white 384-well microtiter plates (Corning) and the cytotoxicity of compounds in HeLa cells was determined by measuring the ATP content of the cells using the ATPlite kit (Perkin Elmer, Zaventem, Belgium) according to the manufacturer's instructions. The CC50 was defined as the 50% concentration for cytotoxicity.

Structure (SMILES) | EC50 (rgRSV224 virus) | melting point | CC50 at 3 days (in vitro)
COc1ccc(-c2cc(C(=O)N3CCc4ccccc4[C@H]3C)nc3cc(-c4ccc(N5CC[C@H](C(N)=O)C5)cc4F)nn23)cc1 [Compound 57, (3S)-1-{3-Fluoro-4-[7-(4-methoxyphenyl)-5-[(1R)-1-methyl-1,2,3,4-tetrahydro-isoquinoline-2-carbonyl]pyrazolo[1,5-a]pyrimidin-2-yl]phenyl}pyrrolidine-3-carboxamide] | 0.023 µM | 216.34 °C | > 100 µM
C[C@@H]1c2ccccc2CCN1C(=O)c1cc(C2CC2)n2nc(-c3ccc(N4C[C@H](C(N)=O)C[C@@H]4C)cc3F)cc2n1 (single isomer, unassigned) [Compound 33, (3*R,5*S)-1-(4-{7-cyclopropyl-5-[(1R)-1-methyl-1,2,3,4-tetrahydroisoquinoline-2-carbonyl]pyrazolo[1,5-a]pyrimidin-2-yl}-3-fluorophenyl)-5-methylpyrrolidine-3-carboxamide] | 0.043 µM | 292.7 °C | 34.5 µM
C[C@@H]1c2ccccc2CCN1C(=O)c1cc(C2CC2)n2nc(-c3cc(F)c(N4CC[C@H](C(N)=O)C4)cc3F)cc2n1 [Compound 55, (3S)-1-(4-{7-Cyclopropyl-5-[(1R)-1-methyl-1,2,3,4-tetrahydroisoquinoline-2-carbonyl]-pyrazolo[1,5-a]pyrimidin-2-yl}-2,5-difluorophenyl)pyrrolidine-3-carboxamide] | 0.016 µM | 253.3 °C | > 100 µM
C[C@@H]1c2ccccc2CCN1C(=O)c1cc(C2CC2)n2nc(-c3ccc(N4C[C@H](C(N)=O)C[C@H]4C)cc3F)cc2n1 (single isomer, unassigned) [Compound 32, (3*R,5*R)-1-(4-{7-cyclopropyl-5-[(1R)-1-methyl-1,2,3,4-tetrahydroisoquinoline-2-carbonyl]pyrazolo[1,5-a]pyrimidin-2-yl}-3-fluorophenyl)-5-methylpyrrolidine-3-carboxamide] | 0.06 µM | 297.57 °C | 32.1 µM
CNC(=O)C1CCN(c2ccc(-c3cc4nc(C(=O)N5CCc6ccccc6[C@H]5C)cc(C5CC5)n4n3)c(F)c2)CC1 [Compound 72, 1-(4-{7-Cyclopropyl-5-[(1R)-1-methyl-1,2,3,4-tetrahydroisoquinoline-2-carbonyl]-pyrazolo[1,5-a]pyrimidin-2-yl}-3-fluorophenyl)-N-methylpiperidine-4-carboxamide] | 0.087 µM | 252.4 °C | > 100 µM
C[C@@H]1c2ccccc2CCN1C(=O)c1cc(C2CC2)n2nc(-c3cnc(N4CC[C@H](C(=O)NS(C)(=O)=O)C4)cc3F)cc2n1 [Compound 54, (3S)-1-(5-{7-Cyclopropyl-5-[(1R)-1-methyl-1,2,3,4-tetrahydroisoquinoline-2-carbonyl]-pyrazolo[1,5-a]pyrimidin-2-yl}-4-fluoropyridin-2-yl)-N-methanesulfonylpyrrolidine-3-carboxamide] | 0.192 µM | 254.46 °C | 77.4 µM
C[C@@H]1c2ccccc2CCN1C(=O)c1cc(C2CC2)n2nc(-c3ccc(N4CC[C@@H](S(C)(=N)=O)C4)cc3F)cc2n1 (stereo partly drawn) [Compound 79, [(3R)-1-(4-{7-Cyclopropyl-5-[(1R)-1-methyl-1,2,3,4-tetrahydroisoquinoline-2-carbonyl]-pyrazolo[1,5-a]pyrimidin-2-yl}-3-fluorophenyl)pyrrolidin-3-yl](imino)methyl-λ^6-sulfanone] | 0.476 µM | 285.54 °C | 13.3 µM
C[C@@H]1c2cc(F)ccc2CCN1C(=O)c1cc(C2CC2)n2nc(-c3ccc(N4CC[C@H](C(N)=O)C4)cc3F)cc2n1 (single isomer, unassigned) [Compound 47, (3S)-1-(4-{7-Cyclopropyl-5-[(1*R)-7-fluoro-1-methyl-1,2,3,4-tetrahydroisoquinoline-2-carbonyl]pyrazolo[1,5-a]pyrimidin-2-yl}-3-fluorophenyl)pyrrolidine-3-carboxamide] | 0.009 µM | 245.69 °C | 41.5 µM
C[C@@H]1c2ccccc2CCN1C(=O)c1cc(C2CC2)n2nc(-c3ccc(N4CCC(S(N)(=O)=O)C4)cc3F)cc2n1 (stereo partly drawn) [Compound 19, 1-(4-{7-Cyclopropyl-5-[(1R)-1-methyl-1,2,3,4-tetrahydroisoquinoline-2-carbonyl]-pyrazolo[1,5-a]pyrimidin-2-yl}-3-fluorophenyl)pyrrolidine-3-sulfonamide] | 0.041 µM | 308.63 °C | 72.3 µM
C[C@@H]1c2ccccc2CCN1C(=O)c1cc(C2CC2)n2nc(-c3ccc(N4CC(C(N)=O)C4)cc3F)cc2n1 [Compound 91, 1-(4-{7-Cyclopropyl-5-[(1R)-1-methyl-1,2,3,4-tetrahydroisoquinoline-2-carbonyl]pyrazolo[1,5-a]pyrimidin-2-yl}-3-fluorophenyl)azetidine-3-carboxamide] | 0.036 µM | 236.01 °C | 28.3 µM
CC(=O)N[C@@H]1CCN(c2ccc(-c3cc4nc(C(=O)N5CCc6ccccc6[C@H]5C)cc(C5CC5)n4n3)c(F)c2)C1 [Compound 7, N-[(3R)-1-(4-{7-Cyclopropyl-5-[(1R)-1-methyl-1,2,3,4-tetrahydroisoquinoline-2-carbonyl]pyrazolo[1,5-a]pyrimidin-2-yl}-3-fluorophenyl)pyrrolidin-3-yl]acetamide] | 0.037 µM | 189 °C | 71.5 µM
C[C@@H]1c2ccccc2CCN1C(=O)c1cc(-c2cncc(F)c2)n2nc(-c3ccc(N4CC[C@H](C(N)=O)C4)cc3F)cc2n1 [Compound 90, (3S)-1-{3-Fluoro-4-[7-(5-fluoropyridin-3-yl)-5-[(1R)-1-methyl-1,2,3,4-tetrahydro-isoquinoline-2-carbonyl]pyrazolo[1,5-a]pyrimidin-2-yl]phenyl}pyrrolidine-3-carboxamide] | 0.046 µM | 269.08 °C | 
C[C@@H]1c2ccccc2CCN1C(=O)c1cc(C2CC2)n2nc(-c3ccc(N4CC[C@H](NS(C)(=O)=O)C4)cc3F)cc2n1 [Compound 12, N-[(3S)-1-(4-{7-Cyclopropyl-5-[(1R)-1-methyl-1,2,3,4-tetrahydroisoquinoline-2-carbonyl]pyrazolo[1,5-a]pyrimidin-2-yl}-3-fluorophenyl)pyrrolidin-3-yl]methane-sulfonamide] | 0.041 µM |  | > 100 µM
C[C@@H]1c2ccsc2CCN1C(=O)c1cc(C2CC2)n2nc(-c3ccc(N4CC[C@H](C(C)(C)C(N)=O)C4)cc3F)cc2n1 (single isomer, unassigned) [Compound 29, 2-[(3*R)-1-(4-{7-Cyclopropyl-5-[(4*R)-4-methyl-4,5,6,7-tetrahydro-thieno[3,2-c]pyridine-5-carbonyl]pyrazolo[1,5-a]pyrimidin-2-yl}-3-fluorophenyl)pyrrolidin-3-yl]-2-methyl-propanamide] | 0.045 µM |  | 43.7 µM
COC(=O)N[C@@H]1CCN(c2ccc(-c3cc4nc(C(=O)N5CCc6ccccc6[C@H]5C)cc(C5CC5)n4n3)c(F)c2)C1 [Compound 9, Methyl N-[(3R)-1-[4-{7-cyclopropyl-5-[(1R)-1-methyl-1,2,3,4-tetrahydroisoquinoline-2-carbonyl]pyrazolo[1,5-a]pyrimidin-2-yl}-3-fluorophenyl)pyrrolidin-3-yl]carbamate] | 0.108 µM |  | > 100 µM
C[C@@H]1c2ccsc2CCN1C(=O)c1cc(C2CC2)n2nc(-c3ccc(N4CC[C@](C)(C(N)=O)C4)cc3F)cc2n1 (single isomer, unassigned) [Compound 45, (3*S)-1-(4-{7-Cyclopropyl-5-[(4*R)-4-methyl-4,5,6,7-tetrahydro-thieno[3,2-c]pyridine-5-carbonyl]pyrazolo[1,5-a]pyrimidin-2-yl}-3-fluorophenyl)-3-methylpyrrolidine-3-carboxamide] | 0.02 µM |  | 31.4 µM
C[C@@H]1c2ccccc2CCN1C(=O)c1cc(C2CC2)n2nc(-c3ccc(N4CC[C@H](N)C4)cc3F)cc2n1 [Compound 93, (2-(4-((S)-3-aminopyrrolidin-1-yl)-2-fluorophenyl)-7-cyclopropylpyrazolo[1,5-a]pyrimidin-5-yl)((R)-1-methyl-3,4-dihydroisoquinolin-2(1H)-yl)methanone] | 0.039 µM |  | 13.4 µM
CNC(=O)O[C@H]1CCN(c2ccc(-c3cc4nc(C(=O)N5CCc6ccccc6[C@H]5C)cc(C5CC5)n4n3)c(F)c2)C1 [Compound 16, (3S)-1-(4-{7-Cyclopropyl-5-[(1R)-1-methyl-1,2,3,4-tetrahydroisoquinoline-2-carbonyl]-pyrazolo[1,5-a]pyrimidin-2-yl}-3-fluorophenyl)pyrrolidin-3-yl N-methylcarbamate] | 0.11 µM |  | > 100 µM
C[C@@H]1c2ccccc2CCN1C(=O)c1cc(C2CC2)n2nc(-c3ccc(N4CCC(C(N)=O)CC4)cc3F)cc2n1 [Compound 68, 1-(4-{7-Cyclopropyl-5-[(1R)-1-methyl-1,2,3,4-tetrahydroisoquinoline-2-carbonyl]-pyrazolo[1,5-a]pyrimidin-2-yl}-3-fluorophenyl)piperidine-4-carboxamide] | 0.058 µM |  | 26.6 µM
CO[C@H]1CN(c2ccc(-c3cc4nc(C(=O)N5CCc6ccccc6[C@H]5C)cc(C5CC5)n4n3)c(F)c2)C[C@@H]1O (stereo in doubt) [Compound 96, (7-cyclopropyl-2-(2-fluoro-4-((trans)-3-hydroxy-4-methoxypyrrolidin-1-yl)phenyl)pyrazolo[1,5-a]pyrimidin-5-yl)((R)-1-methyl-3,4-dihydroisoquinolin-2(1H)-yl)methanone] | 0.05 µM |  | 22.5 µM
C[C@@H]1c2ccccc2CCN1C(=O)c1cc(C2CC2)n2nc(-c3ccc(N4C[C@@H](O)[C@H](O)C4)cc3F)cc2n1 [Compound 100, (7-cyclopropyl-2-(4-((3R,4R)-3,4-dihydroxypyrrolidin-1-yl)-2-fluorophenyl)pyrazolo[1,5-a]pyrimidin-5-yl)((R)-1-methyl-3,4-dihydroisoquinolin-2(1H)-yl)methanone] | 0.011 µM |  | 23.8 µM

From patent US11339165B2, “Pyrazolopyrimidines having activity against the respiratory syncytial virus (RSV)” (priority 2017, dated 2022)
